Experiments:
WT-BaF3 cells = assay: Cell antiproliferative activity assay (CCK-8), WT-BaF3 (broad-spectrum cytotoxicity); assay type: cell-based; conditions: 72 h; WT-BaF3 cells (IL-3 supplemented), CCK-8, 3 days incubation
Protocol: (§1) The activity of compounds against BRK kinase can be evaluated by their inhibition of the growth of the BRK kinase-stably transfected BaF3 cell line (BRK-BaF3) and wild-type BaF3 cells (WT-BaF3). […] The larger the ratio of the half-maximal growth inhibitory concentration (IC50) of a compound between WT-BaF3 and BRK-BaF3 cells, the better the selectivity of the compound.
(§2) BRK-BaF3, WT-BaF3, WEHI cell line, and breast cancer cell line T47D were cultured using RPMI 1640 Basal medium or DMEM (Dulbecco's Modified Eagle Medium) (Shanghai Peiyuan Biotechnology, L220KJ), supplemented with 10% FBS (Gibco, REF 10099-141C) and 1% P/S (Shanghai Peiyuan Biotechnology, S110JV), in an incubator (Thermo 3020) at 37°C with 5% CO2. Cell viability was above 95%. Cells were passaged at a 3:1 ratio every 3-4 days. For WT-BaF3 cells, WEHI cells were first cultured, and their culture supernatant was filtered through a 0.22 µm filter. This supernatant was added at 10% to the regular culture medium to supplement IL-3 required for WT-BaF3 cell proliferation, which served as the culture medium for WT-BaF3. For testing, cells were first collected and counted, then prepared into a cell suspension at 100,000 cells/mL and plated at 100 µL per well. Drug concentrations started from 10 µM and were serially diluted 3:1. After incubation for 3 days, 20 µL of CCK-8 detection reagent (Targetmol C005) was added to each well. After incubation for 2-4 hours, OD450 was measured using a microplate reader (Varioskan LUX, Thermo Scientific). After subtracting the blank background, the curve was fitted and the IC50 was calculated using XLfit software.

BRK-BaF3 cells = assay: Cell antiproliferative activity assay (CCK-8), BRK-BaF3; assay type: cell-based; conditions: 72 h, CCK-8, 3 days incubation
Protocol: as §1, §2

Cc1nn(CCO)cc1Nc1ncc2cc(-c3c(Cl)ccnc3Cl)cc(C(C)C)c2n1 [I-44]
IC50 (WT-BaF3 cells): 500 to 2500 nM | IC50 (BRK-BaF3 cells): ≤ 20 nM

Cc1nn(CCO)cc1Nc1ncc2cc(-c3nccnc3F)cc(C(C)C)c2n1 [I-79]
IC50 (WT-BaF3 cells): 500 to 2500 nM | IC50 (BRK-BaF3 cells): ≤ 20 nM

Cc1nccnc1-c1cc(C(C)C)c2nc(Nc3cnn(C4CCN(C)CC4)c3C)ncc2c1 [III-107]
IC50 (WT-BaF3 cells): > 2500 nM | IC50 (BRK-BaF3 cells): ≤ 20 nM

Cc1cc(P(C)(C)=O)ccc1Nc1ncc2cc(-c3nccnc3C)cc(C(C)C)c2n1 [II-13]
IC50 (WT-BaF3 cells): > 2500 nM | IC50 (BRK-BaF3 cells): 20 to 100 nM

Cc1nn(CC(N)=O)cc1Nc1ncc2cc(-c3cccnc3C)cc(C(C)C)c2n1 [III-128]
IC50 (WT-BaF3 cells): > 2500 nM | IC50 (BRK-BaF3 cells): ≤ 20 nM

Cc1nccnc1-c1cc(C2CC2)c2nc(Nc3cc(O)c(P(C)(C)=O)cc3F)ncc2c1 [II-76]
IC50 (WT-BaF3 cells): > 2500 nM | IC50 (BRK-BaF3 cells): ≤ 20 nM

Cc1nn(CCO)cc1Nc1ncc2cc(-c3ccccn3)cc(C(C)C)c2n1 [I-1]
IC50 (WT-BaF3 cells): 500 to 2500 nM | IC50 (BRK-BaF3 cells): ≤ 20 nM

Cc1nn(CCO)cc1Nc1ncc2cc(-c3ccncc3)cc(C(C)C)c2n1 [I-10]
IC50 (WT-BaF3 cells): 500 to 2500 nM | IC50 (BRK-BaF3 cells): 20 to 100 nM

Cc1cc(Nc2ncc3cc(-c4nccnc4C)cc(C(C)C)c3n2)ncc1P(C)(C)=O [II-9]
IC50 (WT-BaF3 cells): > 2500 nM | IC50 (BRK-BaF3 cells): 20 to 100 nM

Cc1nccnc1-c1cc(C2CC2)c2nc(Nc3cnn(CCO)c3)ncc2c1 [I-107]
IC50 (WT-BaF3 cells): 500 to 2500 nM | IC50 (BRK-BaF3 cells): ≤ 20 nM

Cc1nn(CCO)cc1Nc1ncc2cc(-c3nccnc3N)cc(C3CC3)c2n1 [I-105]
IC50 (WT-BaF3 cells): 500 to 2500 nM | IC50 (BRK-BaF3 cells): ≤ 20 nM

Cc1nn(CCO)cc1Nc1ncc2cc(-c3ccccn3)cc(C(F)(F)F)c2n1 [I-9]
IC50 (WT-BaF3 cells): > 2500 nM | IC50 (BRK-BaF3 cells): ≤ 20 nM

Cc1nn(CCO)cc1Nc1ncc2cc(-c3c(C)ncnc3Cl)cc(C(C)C)c2n1 [I-127]
IC50 (WT-BaF3 cells): > 2500 nM | IC50 (BRK-BaF3 cells): ≤ 20 nM

Cc1cnccc1-c1cc(C(C)C)c2nc(Nc3cn(CCO)nc3C)ncc2c1 [I-12]
IC50 (WT-BaF3 cells): 500 to 2500 nM | IC50 (BRK-BaF3 cells): ≤ 20 nM

Cc1nn(CC(N)=O)cc1Nc1ncc2cc(-c3nccnc3C)cc(C(C)C)c2n1 [III-111]
IC50 (WT-BaF3 cells): > 2500 nM | IC50 (BRK-BaF3 cells): ≤ 20 nM

Cc1cncnc1-c1cc(C2CC2)c2nc(Nc3cn(CCO)nc3C)ncc2c1 [I-148]
IC50 (WT-BaF3 cells): > 2500 nM | IC50 (BRK-BaF3 cells): ≤ 20 nM

COc1cc(P(C)(C)=O)ccc1Nc1ncc2cc(-c3c(C)ncnc3C)cc(C(C)C)c2n1 [II-53]
IC50 (WT-BaF3 cells): > 2500 nM | IC50 (BRK-BaF3 cells): 20 to 100 nM

Cc1ncc(F)cc1-c1cc(C(C)C)c2nc(Nc3cnn(CCO)c3)ncc2c1 [I-52]
IC50 (WT-BaF3 cells): > 2500 nM | IC50 (BRK-BaF3 cells): ≤ 20 nM

Cc1nn(CCO)cc1Nc1ncc2cc(-c3ncccc3F)cc(C(C)C)c2n1 [I-2]
IC50 (WT-BaF3 cells): > 2500 nM | IC50 (BRK-BaF3 cells): ≤ 20 nM

Cc1cc(Nc2ncc3cc(-c4c(C)ncnc4C)cc(C(C)C)c3n2)cnc1P(C)(C)=O [II-45]
IC50 (WT-BaF3 cells): > 2500 nM | IC50 (BRK-BaF3 cells): ≤ 20 nM

CCc1cc(P(C)(C)=O)ccc1Nc1ncc2cc(-c3nccnc3C)cc(C(C)C)c2n1 [II-15]
IC50 (WT-BaF3 cells): > 2500 nM | IC50 (BRK-BaF3 cells): ≤ 20 nM

Cc1nn(CCO)cc1Nc1ncc2cc(-c3cncc(N)n3)cc(C(C)C)c2n1 [I-93]
IC50 (WT-BaF3 cells): > 2500 nM | IC50 (BRK-BaF3 cells): 20 to 100 nM

Cc1nccnc1-c1cc(C(C)C)c2nc(Nc3cn(CCO)nc3C(F)F)ncc2c1 [I-99]
IC50 (WT-BaF3 cells): 500 to 2500 nM | IC50 (BRK-BaF3 cells): ≤ 20 nM

Cc1nn(CCO)cc1Nc1ncc2cc(-c3cccnc3)cc(C3CC3)c2n1 [I-72]
IC50 (WT-BaF3 cells): 100 to 500 nM | IC50 (BRK-BaF3 cells): ≤ 20 nM

Cc1nn(CCO)cc1Nc1ncc2cc(-c3cncnc3)cc(C(C)C)c2n1 [I-123]
IC50 (WT-BaF3 cells): 500 to 2500 nM | IC50 (BRK-BaF3 cells): 20 to 100 nM

Cc1nn(CCN=S(C)(C)=O)cc1Nc1ncc2cc(-c3nccnc3C)cc(C(C)C)c2n1 [III-112]
IC50 (WT-BaF3 cells): > 2500 nM | IC50 (BRK-BaF3 cells): 20 to 100 nM

Cc1nccnc1-c1cc(C(F)(F)F)c2nc(Nc3ccc(P(C)(C)=O)cc3F)ncc2c1 [II-35]
IC50 (WT-BaF3 cells): > 2500 nM | IC50 (BRK-BaF3 cells): 20 to 100 nM

Cc1nn(CCO)cc1Nc1ncc2cc(-c3cccnc3C3CC3)cc(C(C)C)c2n1 [I-28]
IC50 (WT-BaF3 cells): 500 to 2500 nM | IC50 (BRK-BaF3 cells): 20 to 100 nM

Cc1nccnc1-c1cc(C2CC2)c2nc(Nc3ccc(P(C)(C)=O)c(O)c3)ncc2c1 [II-75]
IC50 (WT-BaF3 cells): > 2500 nM | IC50 (BRK-BaF3 cells): ≤ 20 nM

Cc1nn(CCO)cc1Nc1ncc2cc(-c3cccnc3C#N)cc(C(C)C)c2n1 [I-26]
IC50 (WT-BaF3 cells): > 2500 nM | IC50 (BRK-BaF3 cells): ≤ 20 nM

Cc1ccnc(C)c1-c1cc(C(C)C)c2nc(Nc3cn(CCO)nc3C)ncc2c1 [I-47]
IC50 (WT-BaF3 cells): 500 to 2500 nM | IC50 (BRK-BaF3 cells): ≤ 20 nM

COc1nccnc1-c1cc(C(C)C)c2nc(Nc3cn(CCO)nc3C)ncc2c1 [I-82]
IC50 (WT-BaF3 cells): 500 to 2500 nM | IC50 (BRK-BaF3 cells): 20 to 100 nM

Cc1nn(CC(N)=O)cc1Nc1ncc2cc(-c3nccnc3C)cc(C3CC3)c2n1 [III-114]
IC50 (WT-BaF3 cells): 500 to 2500 nM | IC50 (BRK-BaF3 cells): ≤ 20 nM

Cc1cn(C)nc1-c1cc(C(C)C)c2nc(Nc3cn(CCO)nc3C)ncc2c1 [I-190]
IC50 (WT-BaF3 cells): 500 to 2500 nM | IC50 (BRK-BaF3 cells): ≤ 20 nM

Cc1c[nH]c(=O)cc1-c1cc(C(C)C)c2nc(Nc3cnn(CCO)c3C)ncc2c1 [I-181]
IC50 (WT-BaF3 cells): > 2500 nM | IC50 (BRK-BaF3 cells): 20 to 100 nM

Cc1nn(CCO)cc1Nc1ncc2cc(-c3cn(C)nc3C)cc(C(C)C)c2n1 [I-188]
IC50 (WT-BaF3 cells): 500 to 2500 nM | IC50 (BRK-BaF3 cells): ≤ 20 nM

Cc1nn(CCO)cc1Nc1ncc2cc(-c3cc(F)cnc3C)cc(C3CC3)c2n1 [I-74]
IC50 (WT-BaF3 cells): 500 to 2500 nM | IC50 (BRK-BaF3 cells): ≤ 20 nM

Cc1nc(P(C)(C)=O)ccc1Nc1ncc2cc(-c3nccnc3C)cc(C(C)C)c2n1 [II-1]
IC50 (WT-BaF3 cells): > 2500 nM | IC50 (BRK-BaF3 cells): ≤ 20 nM

Cc1cc(Nc2ncc3cc(-c4nccnc4C)cc(C(C)C)c3n2)c(F)cc1P(C)(C)=O [II-21]
IC50 (WT-BaF3 cells): 500 to 2500 nM | IC50 (BRK-BaF3 cells): ≤ 20 nM

CCN(C)CCn1cc(Nc2ncc3cc(-c4nccnc4C)cc(C(C)C)c3n2)c(C)n1 [III-109]
IC50 (WT-BaF3 cells): > 2500 nM | IC50 (BRK-BaF3 cells): ≤ 20 nM

Cc1cc(P(C)(C)=O)ncc1Nc1ncc2cc(-c3nccnc3C)cc(C(C)C)c2n1 [II-4]
IC50 (WT-BaF3 cells): > 2500 nM | IC50 (BRK-BaF3 cells): 20 to 100 nM

Cc1nn(CCO)cc1Nc1ncc2cc(-c3cc(F)cnc3F)cc(C(C)C)c2n1 [I-40]
IC50 (WT-BaF3 cells): > 2500 nM | IC50 (BRK-BaF3 cells): ≤ 20 nM

Cc1nn(C2COC2)cc1Nc1ncc2cc(-c3c(C)ncnc3C)cc(C3CC3)c2n1 [III-98]
IC50 (WT-BaF3 cells): 500 to 2500 nM | IC50 (BRK-BaF3 cells): 20 to 100 nM

Cc1nn(CCO)cc1Nc1ncc2cc(-c3c(Cl)ccnc3N)cc(C(C)C)c2n1 [I-49]
IC50 (WT-BaF3 cells): > 2500 nM | IC50 (BRK-BaF3 cells): ≤ 20 nM

Cc1nccnc1-c1cc(C(F)(F)F)c2nc(Nc3cnn(CCO)c3)ncc2c1 [I-110]
IC50 (WT-BaF3 cells): > 2500 nM | IC50 (BRK-BaF3 cells): ≤ 20 nM

Cc1c[nH]c(=O)cc1-c1cc(C2CC2)c2nc(Nc3cnn(C4COC4)c3C)ncc2c1 [III-83]
IC50 (WT-BaF3 cells): > 2500 nM | IC50 (BRK-BaF3 cells): ≤ 20 nM

Cc1nn(C2COC2)cc1Nc1ncc2cc(-c3nccnc3C)cc(C3CC3)c2n1 [III-113]
IC50 (WT-BaF3 cells): 500 to 2500 nM | IC50 (BRK-BaF3 cells): ≤ 20 nM

COc1ncncc1-c1cc(C(F)(F)F)c2nc(Nc3cn(CCO)nc3C)ncc2c1 [I-153]
IC50 (WT-BaF3 cells): > 2500 nM | IC50 (BRK-BaF3 cells): ≤ 20 nM

Cc1nn(CCO)cc1Nc1ncc2cc(-c3c(F)ccnc3Cl)cc(C(C)C)c2n1 [I-45]
IC50 (WT-BaF3 cells): > 2500 nM | IC50 (BRK-BaF3 cells): ≤ 20 nM

COc1ncnc(C)c1-c1cc(C(C)C)c2nc(Nc3cn(CCO)nc3C)ncc2c1 [I-131]
IC50 (WT-BaF3 cells): > 2500 nM | IC50 (BRK-BaF3 cells): ≤ 20 nM

Cc1nn(CC(N)=O)cc1Nc1ncc2cc(-c3cncnc3C)cc(C(C)C)c2n1 [III-96]
IC50 (WT-BaF3 cells): > 2500 nM | IC50 (BRK-BaF3 cells): 20 to 100 nM

Cc1cc(Nc2ncc3cc(-c4c(C)ncnc4C)cc(C(C)C)c3n2)c(F)cc1P(C)(C)=O [II-59]
IC50 (WT-BaF3 cells): > 2500 nM | IC50 (BRK-BaF3 cells): 20 to 100 nM

COc1ccncc1-c1cc(C(C)C)c2nc(Nc3cn(CCO)nc3C)ncc2c1 [I-33]
IC50 (WT-BaF3 cells): > 2500 nM | IC50 (BRK-BaF3 cells): ≤ 20 nM

COc1cc(P(C)(C)=O)ccc1Nc1ncc2cc(-c3nccnc3C)cc(C(C)C)c2n1 [II-14]
IC50 (WT-BaF3 cells): > 2500 nM | IC50 (BRK-BaF3 cells): ≤ 20 nM
